pEC50: −log10 of the molar value.
Tested on: C9M-TF1 cells
Assay: Primary high-throughput screen, Alamar Blue, suspension cells
Assay type: cell-based
Settings: Homo sapiens, 72 h, compound at 10 μM, first C9M column, read-out: percentage kill, C9M
Method: (§1) Daughter Plates containing 10 μl of a […] solution of test compound selected from among the candidate compounds stored at […] are thawed at room temperature. A 10 μL volume of 0.1% DMSO in PBS is added to all wells of Column 12 and the wells in Row A-F of Column 1. A 10 μl volume of a pre-determined concentration of the P13-Kinase inhibitor LY294002 is added to wells in Row G and H of Column 1. A 90 μl volume of the appropriate cell culture medium is then added to each well and mixed by repeated aspiration/dispensing. The compounds are at a final test concentration of 10 μM.
(§2) Once the Daughter Plates have been prepared the media is removed from all wells of the cell culture plate using an 8-Channel Vacuum Aspirator. The contents of the Daughter Plates are then transferred to the appropriate wells of their relevant Test Plates and the Test Plates are incubated for 72 h at 37° C. and 5% CO2. At the end of this period Test Plates are assayed by Alamar Blue. A 10 μl volume of Alamar Blue is added to all wells of the Test Plate. The Test Plates are incubated for […] at 37° C. and 5% CO2 and finally read using the BioTek SYNERGY plate reader (Excitation 530125 nm-Emission 590135 nm). Percentage inhibition is determined using Microsoft Excel spreadsheet calculations.
(§3) Suspension cells are split 24 hours prior to drug treatment in order to bring the cultures into the log phase of growth. On the day of the assay the cells are plated directly into the Daughter Plates at the appropriate pre-determined seeding density (Table 1) in 90 μl volumes, the concentration of the test compounds thus being reduced to 10 μM. Cells are plated in all wells apart from those in Column 12 which contain 901 normal culture medium alone. The plates are incubated for 72 h at 37° C. and 5% CO2 after which time they are assayed by Alamar Blue as per the preceding example.
(§4) The figures appearing in the columns are the percentage kill achieved by that compound at 10 μM.
For `COc1ccc(-c2cnn3c(NCc4ccccn4)ccnc23)cn1` [Compound 9], the inhibition at 10 µM was 9%. In the case of `Cc1csc(-c2cnn3c(NCc4ccccn4)ccnc23)c1` [Compound 10], the inhibition at 10 µM was 14%.

Same assay, conditions: Homo sapiens, 72 h, compound at 10 μM, second C9M column, read-out: percentage kill, C9M
`COc1ccc(-c2cnn3c(NCc4ccccn4)ccnc23)cn1` [Compound 9] showed an inhibition at 10 µM of -5%. `Cc1csc(-c2cnn3c(NCc4ccccn4)ccnc23)c1` [Compound 10] showed an inhibition at 10 µM of -8%.

Tested on: FRAT2 overexpresing TF1 (FRAT2-C9M-TF1 cells)
Assay: as above
Assay type: cell-based
Settings: Homo sapiens; compound at 10 μM, 72 h; minus GMCSF; read-out: percentage kill, FRAT2−
Method: as §1, §2, §3, §4
`COc1ccc(-c2cnn3c(NCc4ccccn4)ccnc23)cn1` [Compound 9] gave an inhibition at 10 µM of 62%. For `Cc1csc(-c2cnn3c(NCc4ccccn4)ccnc23)c1` [Compound 10], the inhibition at 10 µM was 71%.

Same assay, conditions: Homo sapiens; compound at 10 μM, 72 h; plus GMCSF; read-out: percentage kill, FRAT2+
`COc1ccc(-c2cnn3c(NCc4ccccn4)ccnc23)cn1` [Compound 9] gave an inhibition at 10 µM of 15%. `Cc1csc(-c2cnn3c(NCc4ccccn4)ccnc23)c1` [Compound 10] showed an inhibition at 10 µM of 16%.

Tested on: C9M-TF1 cells
Assay: EC50 titration, Alamar Blue, suspension cells
Assay type: cell-based
Settings: Homo sapiens, 72 h
Method: (§5) On the day of the assay compounds are used to prepare dilution series on Titration Plates which are plated at ten times their final screening concentration in 10 μl aliquots.
(§6) Suspension cells are split 24 hours prior to drug treatment in order to bring the cultures into the log phase of growth. On the day of the assay the cells are plated directly into the Titration Plates at the appropriate pre-determined seeding density (Table 1) in 90 μl volumes thus reducing the concentration of the compounds to their final test concentration. The plates are incubated for 72 hours at 37° C. and 5% CO2 after which time they are assayed by Alamar Blue.
(§7) The EC50 values are calculated using the values obtained from the Alamar Blue readout which are converted into a “Percentage of the Untreated Control” and using Graph Pad Prism these values are plotted against the logarithm of the test concentration. Using a non-linear regression analysis a sigmoidal dose-response curve is generated from which the EC50 is determined.
Work on `COc1ccc(-c2cnn3c(NCc4ccccn4)ccnc23)cn1` [Compound 9] yielded a pEC50 of 4.75. With `Cc1csc(-c2cnn3c(NCc4ccccn4)ccnc23)c1` [Compound 10] the pEC50 was 4.64.

Tested on: FRAT2-C9M-TF1 cells
Assay: EC50 titration, Alamar Blue, suspension cells
Assay type: cell-based, Human
Settings: Homo sapiens; 72 h, Alamar Blue; absence of growth factor
Method: as §5, §6, §7
Compound `COc1ccc(-c2cnn3c(NCc4ccccn4)ccnc23)cn1` [Compound 9] has a pEC50 of 5.47. Work on `Cc1csc(-c2cnn3c(NCc4ccccn4)ccnc23)c1` [Compound 10] yielded a pEC50 of 5.27.

Same assay, conditions: Homo sapiens; 72 h, Alamar Blue; presence of growth factor
For `COc1ccc(-c2cnn3c(NCc4ccccn4)ccnc23)cn1` [Compound 9], the pEC50 was 5.69. `Cc1csc(-c2cnn3c(NCc4ccccn4)ccnc23)c1` [Compound 10] showed a pEC50 of 5.33.

Tested on: colon cancer
Assay: not given
Settings: cited from earlier work
For “Avastin: FDA-approved monoclonal antibody (Genentech) blocking vascular endothelial growth factor (VEGF)”, the “lived longer than patients on the standard regimen alone” value is listed as “about five”.

Tested on: CACO2 Colon adenocarcinoma
Assay: Primary high-throughput screen, Alamar Blue, adherent cells
Assay type: cell-based
Settings: Homo sapiens, Caco-2; compound at 10 μM, 72 h; read-out: percentage kill, CAC02
Method: (§8) Adherent cells are plated at a pre-determined seeding density (Table 1) in flat-bottom 96 well plates 24 hours prior to drug treatment. The cell lines are plated in 100 μl volumes in each well. Cells are plated in all wells apart from those in Column 12 which contain 100 μL normal culture medium alone. These plates will be known as the Test Plates. The Test Plates are labelled with a Daughter Plate ID.
as §1, §2, §4
`COc1ccc(-c2cnn3c(NCc4ccccn4)ccnc23)cn1` [Compound 9] gave an inhibition at 10 µM of 65%. In the case of `Cc1csc(-c2cnn3c(NCc4ccccn4)ccnc23)c1` [Compound 10], the inhibition at 10 µM was 25%.

Tested on: SW480 Colon adenocarcinoma (Dukes' type B)
Assay: as above
Assay type: cell-based
Settings: Homo sapiens, compound at 10 μM, 72 h, read-out: percentage kill, SW480
Method: as §8, §1, §2, §4
With `COc1ccc(-c2cnn3c(NCc4ccccn4)ccnc23)cn1` [Compound 9] the inhibition at 10 µM was 58%. `Cc1csc(-c2cnn3c(NCc4ccccn4)ccnc23)c1` [Compound 10] gave an inhibition at 10 µM of 51%.

Tested on: A549 Non Small Cell Lung Carcinoma
Assay: as above
Assay type: cell-based
Settings: Homo sapiens, compound at 10 μM, 72 h, read-out: percentage kill, A549
Method: as §8, §1, §2, §4
Compound `COc1ccc(-c2cnn3c(NCc4ccccn4)ccnc23)cn1` [Compound 9] has an inhibition at 10 µM of 7%. `Cc1csc(-c2cnn3c(NCc4ccccn4)ccnc23)c1` [Compound 10] gave an inhibition at 10 µM of 8%.

Tested on: LS123 Colon adenocarcinoma (Dukes' type B)
Assay: as above
Assay type: cell-based
Settings: Homo sapiens, LS-123; compound at 10 μM, 72 h; read-out: percentage kill, LS123
Method: as §8, §1, §2, §4
Compound `COc1ccc(-c2cnn3c(NCc4ccccn4)ccnc23)cn1` [Compound 9] has an inhibition at 10 µM of 80%. For `Cc1csc(-c2cnn3c(NCc4ccccn4)ccnc23)c1` [Compound 10], the inhibition at 10 µM was 89%.

Tested on: PC3 Prostate carcinoma (bone metastasis)
Assay: as above
Assay type: cell-based
Settings: compound at 10 μM, 72 h; read-out: percentage kill, PC3
Method: as §8, §1, §2, §4
With `COc1ccc(-c2cnn3c(NCc4ccccn4)ccnc23)cn1` [Compound 9] the inhibition at 10 µM was 9%. Work on `Cc1csc(-c2cnn3c(NCc4ccccn4)ccnc23)c1` [Compound 10] yielded an inhibition at 10 µM of -45%.

Tested on: MCF7 Mammary gland adenocarcinoma
Assay: as above
Assay type: cell-based
Settings: Homo sapiens, compound at 10 μM, 72 h, read-out: percentage kill, MCF7
Method: as §8, §1, §2, §4
In the case of `COc1ccc(-c2cnn3c(NCc4ccccn4)ccnc23)cn1` [Compound 9], the inhibition at 10 µM was 76%. In the case of `Cc1csc(-c2cnn3c(NCc4ccccn4)ccnc23)c1` [Compound 10], the inhibition at 10 µM was 77%.

Tested on: HT29 Colorectal adenocarcinoma
Assay: as above
Assay type: cell-based
Settings: Homo sapiens, HT-29; compound at 10 μM, 72 h; read-out: percentage kill, HT29
Method: as §8, §1, §2, §4
Work on `COc1ccc(-c2cnn3c(NCc4ccccn4)ccnc23)cn1` [Compound 9] yielded an inhibition at 10 µM of 69%. In the case of `Cc1csc(-c2cnn3c(NCc4ccccn4)ccnc23)c1` [Compound 10], the inhibition at 10 µM was 68%.

Tested on: NCI ADR RES Breast adenocarcinoma (pleural effusion)
Assay: as above
Assay type: cell-based
Settings: Homo sapiens, compound at 10 μM, 72 h, read-out: percentage kill, NCI ADR RES
Method: as §8, §1, §2, §4
`COc1ccc(-c2cnn3c(NCc4ccccn4)ccnc23)cn1` [Compound 9] gave an inhibition at 10 µM of 64%. With `Cc1csc(-c2cnn3c(NCc4ccccn4)ccnc23)c1` [Compound 10] the inhibition at 10 µM was 52%.

Tested on: U1810 Non Small Cell Lung Carcinoma
Assay: as above
Assay type: cell-based
Settings: U-1810; compound at 10 μM, 72 h; read-out: percentage kill, U1810
Method: as §8, §1, §2, §4
In the case of `COc1ccc(-c2cnn3c(NCc4ccccn4)ccnc23)cn1` [Compound 9], the inhibition at 10 µM was 52%. For `Cc1csc(-c2cnn3c(NCc4ccccn4)ccnc23)c1` [Compound 10], the inhibition at 10 µM was 16%.

Tested on: non-transformed breast cell line MCF10A
Assay: EC50 titration, Alamar Blue, adherent cells
Assay type: cell-based
Settings: Homo sapiens, MCF-10A, 72 h
Method: as §5
(§9) For adherent cell lines plated 24 hours previously, a 90 μl volume of the appropriate cell culture medium is then added to each well of the Titration Plates and mixed by repeated aspiration/dispensing, thus taking the compounds to their final test concentration. Once the Titration Plates have been prepared the media is removed from all wells of the cell culture plate and the contents of the Titration Plates are then transferred to the appropriate wells of their relevant Test Plates and incubated for 72 h at 37° C. and 5% CO2 after which time they are assayed by Alamar Blue. Using a combination of Microsoft Excel and Graph Pad Prism, EC50s are determined.
as §7
Compound `COc1ccc(-c2cnn3c(NCc4ccccn4)ccnc23)cn1` [Compound 9] has a pEC50 of 4.89. In the case of `Cc1csc(-c2cnn3c(NCc4ccccn4)ccnc23)c1` [Compound 10], the pEC50 was 4.69.

Tested on: breast cancer cell line MCF7
Assay: EC50 titration, Alamar Blue, adherent cells
Assay type: cell-based
Settings: Homo sapiens, 72 h
Method: as §5, §9, §7
In the case of `COc1ccc(-c2cnn3c(NCc4ccccn4)ccnc23)cn1` [Compound 9], the pEC50 was 5.77. `Cc1csc(-c2cnn3c(NCc4ccccn4)ccnc23)c1` [Compound 10] gave a pEC50 of 5.73.

Tested on: colon cancer cell line HT29
Assay: EC50 titration, Alamar Blue, adherent cells
Assay type: cell-based
Settings: Homo sapiens, HT-29, 72 h
Method: as §5, §9, §7
In the case of `COc1ccc(-c2cnn3c(NCc4ccccn4)ccnc23)cn1` [Compound 9], the pEC50 was 5.70. Compound `Cc1csc(-c2cnn3c(NCc4ccccn4)ccnc23)c1` [Compound 10] has a pEC50 of 5.75.

Source: patent publication US20080300263A1, “Pyrazolo [1,5-a] pyrimidine compounds and pharmaceutical compositions containing them” (EiRx Therapeutics plc, priority 2005, published 2008)
